The target in assay [1] is T1, Mitogen-activated protein kinase kinase kinase 19 (Homo sapiens) (UniProt Q56UN5).
T1 sequence (whole entry): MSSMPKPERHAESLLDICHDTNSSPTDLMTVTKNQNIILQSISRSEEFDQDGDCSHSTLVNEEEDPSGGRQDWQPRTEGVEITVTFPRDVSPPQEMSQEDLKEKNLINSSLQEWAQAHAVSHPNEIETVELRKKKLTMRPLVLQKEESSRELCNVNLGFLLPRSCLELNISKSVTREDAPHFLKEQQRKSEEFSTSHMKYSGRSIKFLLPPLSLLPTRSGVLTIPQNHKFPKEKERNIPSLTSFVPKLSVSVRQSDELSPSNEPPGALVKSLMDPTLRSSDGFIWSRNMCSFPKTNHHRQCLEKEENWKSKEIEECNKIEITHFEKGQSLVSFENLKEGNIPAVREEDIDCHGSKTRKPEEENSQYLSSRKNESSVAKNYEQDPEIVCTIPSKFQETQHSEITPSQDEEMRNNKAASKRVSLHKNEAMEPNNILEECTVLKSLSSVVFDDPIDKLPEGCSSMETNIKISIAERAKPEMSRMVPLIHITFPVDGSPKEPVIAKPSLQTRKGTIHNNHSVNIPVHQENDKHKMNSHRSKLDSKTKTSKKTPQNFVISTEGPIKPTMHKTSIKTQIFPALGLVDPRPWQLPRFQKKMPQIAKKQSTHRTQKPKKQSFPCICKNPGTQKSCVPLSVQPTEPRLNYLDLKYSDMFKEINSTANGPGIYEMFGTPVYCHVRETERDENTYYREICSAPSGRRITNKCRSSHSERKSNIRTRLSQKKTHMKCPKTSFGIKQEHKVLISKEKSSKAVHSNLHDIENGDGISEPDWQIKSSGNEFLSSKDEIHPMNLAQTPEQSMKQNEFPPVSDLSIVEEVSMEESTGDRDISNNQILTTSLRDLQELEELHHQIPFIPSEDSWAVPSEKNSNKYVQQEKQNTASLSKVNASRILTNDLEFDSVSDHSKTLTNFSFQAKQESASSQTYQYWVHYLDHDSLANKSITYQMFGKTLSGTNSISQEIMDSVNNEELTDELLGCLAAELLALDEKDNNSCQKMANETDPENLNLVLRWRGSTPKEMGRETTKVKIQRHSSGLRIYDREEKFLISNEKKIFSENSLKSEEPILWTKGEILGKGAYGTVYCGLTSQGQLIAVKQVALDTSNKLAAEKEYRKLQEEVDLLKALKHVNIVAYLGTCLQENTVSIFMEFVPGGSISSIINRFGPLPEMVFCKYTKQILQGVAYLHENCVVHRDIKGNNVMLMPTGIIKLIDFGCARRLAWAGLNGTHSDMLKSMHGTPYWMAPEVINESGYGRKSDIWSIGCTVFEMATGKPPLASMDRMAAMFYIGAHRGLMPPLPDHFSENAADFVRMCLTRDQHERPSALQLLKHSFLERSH
The assay can be described thus: Selectivity interaction (KinomeScan (DiscoverX)) EUB0000695a MAP3K19. The settings on record: at 100 nM.

The target of assay [2] is T2, Myotonin-protein kinase (Homo sapiens) (UniProt Q09013).
T2 sequence (whole entry): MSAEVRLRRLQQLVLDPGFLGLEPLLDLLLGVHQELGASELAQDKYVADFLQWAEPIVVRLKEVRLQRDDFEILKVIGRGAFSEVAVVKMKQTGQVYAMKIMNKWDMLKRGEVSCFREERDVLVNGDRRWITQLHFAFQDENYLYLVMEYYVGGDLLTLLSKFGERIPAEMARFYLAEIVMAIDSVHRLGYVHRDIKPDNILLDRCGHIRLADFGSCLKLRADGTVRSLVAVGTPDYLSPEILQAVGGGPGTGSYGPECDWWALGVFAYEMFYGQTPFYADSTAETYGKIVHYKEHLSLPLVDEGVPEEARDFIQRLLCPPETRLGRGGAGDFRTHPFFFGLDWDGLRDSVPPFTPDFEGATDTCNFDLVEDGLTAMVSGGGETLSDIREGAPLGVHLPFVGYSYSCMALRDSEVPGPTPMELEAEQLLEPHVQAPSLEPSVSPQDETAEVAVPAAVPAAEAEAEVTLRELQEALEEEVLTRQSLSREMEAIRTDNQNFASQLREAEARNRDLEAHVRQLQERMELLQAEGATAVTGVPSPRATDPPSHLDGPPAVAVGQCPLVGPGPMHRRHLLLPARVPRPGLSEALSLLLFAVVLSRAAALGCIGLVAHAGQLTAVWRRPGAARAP
The assay can be described thus: Selectivity interaction (KinomeScan (DiscoverX)) EUB0000666a DMPK. Particulars: at 10 µM.

Assay [3] deals with Tyrosine-protein kinase Lck (Homo sapiens, UniProt P06239). As to the kind of experiment: Selectivity interaction (Kinase panel (literature)) EUB0001199aCl LCK. Particulars: at 1 µM.
Chain of Tyrosine-protein kinase Lck (P06239 2-509 limits assumed): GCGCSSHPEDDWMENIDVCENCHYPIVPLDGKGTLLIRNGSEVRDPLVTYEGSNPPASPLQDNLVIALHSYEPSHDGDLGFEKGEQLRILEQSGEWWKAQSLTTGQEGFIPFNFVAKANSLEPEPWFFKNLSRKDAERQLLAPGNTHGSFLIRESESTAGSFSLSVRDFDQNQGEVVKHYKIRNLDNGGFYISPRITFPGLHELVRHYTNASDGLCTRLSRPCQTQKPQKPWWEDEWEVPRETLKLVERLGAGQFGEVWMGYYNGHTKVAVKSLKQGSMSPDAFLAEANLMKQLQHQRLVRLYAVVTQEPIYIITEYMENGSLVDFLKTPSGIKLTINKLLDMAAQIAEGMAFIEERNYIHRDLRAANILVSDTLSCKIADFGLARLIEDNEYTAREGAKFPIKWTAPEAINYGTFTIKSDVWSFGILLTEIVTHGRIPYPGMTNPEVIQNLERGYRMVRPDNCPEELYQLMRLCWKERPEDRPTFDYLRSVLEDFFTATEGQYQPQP
For assay [4], the target named is Serine/threonine-protein kinase mTOR (Homo sapiens, UniProt P42345). The assay can be described thus: Selectivity interaction (KinomeScan (DiscoverX)) EUB0001049a MTOR. The settings on record: at 1 µM.
Assay [5] addresses Death-associated protein kinase 1 (Homo sapiens, UniProt P53355). As to the kind of experiment: Selectivity interaction (Kinase panel (DSF assay)) EUB0001558a DAPK1. On the technique in general: DSF heats the sample and reads unfolding from a dye or from intrinsic fluorescence.
Assay [6] concerns the target Casein kinase I isoform gamma-2 (Homo sapiens) (UniProt P78368). The assay can be described thus: Selectivity interaction (KinomeScan (DiscoverX)) EUB0001079a CSNK1G2. The settings on record: at 1 µM.

Chain of Death-associated protein kinase 1 (P53355 whole entry, looked up, canonical isoform): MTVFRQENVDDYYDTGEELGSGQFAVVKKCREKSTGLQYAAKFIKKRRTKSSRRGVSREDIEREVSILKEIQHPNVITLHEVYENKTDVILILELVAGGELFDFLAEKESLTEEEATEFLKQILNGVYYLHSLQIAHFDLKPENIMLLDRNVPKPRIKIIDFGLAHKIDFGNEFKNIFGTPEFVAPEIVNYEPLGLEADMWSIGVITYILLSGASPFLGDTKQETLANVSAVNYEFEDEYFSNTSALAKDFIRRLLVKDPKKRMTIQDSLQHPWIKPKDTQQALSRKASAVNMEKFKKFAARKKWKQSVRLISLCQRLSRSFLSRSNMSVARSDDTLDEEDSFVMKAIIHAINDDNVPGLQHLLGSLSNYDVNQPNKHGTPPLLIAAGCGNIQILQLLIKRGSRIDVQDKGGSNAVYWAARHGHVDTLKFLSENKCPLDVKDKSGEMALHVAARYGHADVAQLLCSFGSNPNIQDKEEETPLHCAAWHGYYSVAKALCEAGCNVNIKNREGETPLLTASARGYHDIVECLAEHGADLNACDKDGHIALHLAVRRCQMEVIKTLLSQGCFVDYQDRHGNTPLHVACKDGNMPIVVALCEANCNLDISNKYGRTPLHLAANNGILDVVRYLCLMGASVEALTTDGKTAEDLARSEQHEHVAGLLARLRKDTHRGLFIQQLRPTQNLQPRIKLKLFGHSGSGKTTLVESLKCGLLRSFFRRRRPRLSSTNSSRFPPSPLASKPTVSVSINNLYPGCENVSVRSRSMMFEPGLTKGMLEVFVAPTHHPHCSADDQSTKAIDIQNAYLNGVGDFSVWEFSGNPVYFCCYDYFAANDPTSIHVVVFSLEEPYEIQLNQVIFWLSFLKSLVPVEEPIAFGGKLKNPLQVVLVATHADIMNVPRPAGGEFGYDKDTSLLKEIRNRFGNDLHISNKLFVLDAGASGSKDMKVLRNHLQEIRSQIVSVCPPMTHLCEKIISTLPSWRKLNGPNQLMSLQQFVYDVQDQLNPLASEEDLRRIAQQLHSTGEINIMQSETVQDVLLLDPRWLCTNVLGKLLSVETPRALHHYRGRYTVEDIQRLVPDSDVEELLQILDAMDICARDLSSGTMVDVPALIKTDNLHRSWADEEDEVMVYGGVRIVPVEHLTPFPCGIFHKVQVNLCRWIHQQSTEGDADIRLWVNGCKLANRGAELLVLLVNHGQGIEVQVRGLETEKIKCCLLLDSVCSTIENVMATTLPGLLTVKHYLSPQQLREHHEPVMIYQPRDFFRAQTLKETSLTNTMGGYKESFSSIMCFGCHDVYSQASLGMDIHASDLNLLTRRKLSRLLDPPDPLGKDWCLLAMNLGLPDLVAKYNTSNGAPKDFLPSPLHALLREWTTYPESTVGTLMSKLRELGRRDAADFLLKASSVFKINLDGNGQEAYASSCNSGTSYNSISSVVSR
Chain of Casein kinase I isoform gamma-2 (Homo sapiens) (P78368 whole entry, looked up, canonical isoform): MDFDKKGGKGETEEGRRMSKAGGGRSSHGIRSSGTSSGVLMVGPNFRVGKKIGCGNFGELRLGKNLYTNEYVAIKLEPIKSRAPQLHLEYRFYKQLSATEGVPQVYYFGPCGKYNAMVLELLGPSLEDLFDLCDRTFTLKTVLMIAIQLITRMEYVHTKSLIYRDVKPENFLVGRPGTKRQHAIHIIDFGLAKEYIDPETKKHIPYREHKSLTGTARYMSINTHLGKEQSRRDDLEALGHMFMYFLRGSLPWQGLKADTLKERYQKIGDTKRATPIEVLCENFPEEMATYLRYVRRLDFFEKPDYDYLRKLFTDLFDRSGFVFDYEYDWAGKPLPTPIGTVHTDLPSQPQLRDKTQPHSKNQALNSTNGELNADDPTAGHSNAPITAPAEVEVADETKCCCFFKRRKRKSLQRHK

Molecule `Cc1cc(F)c(C(=O)Nc2cccc(-c3nncn3C(C)C)n2)cc1-n1cnc(C2CC2)c1` came in with a % of control in assay [1] of 57%.
Molecule `O=C(NOC[C@H](O)CO)c1ccc(F)c(F)c1Nc1ccc(I)cc1F` displayed a % of control in assay [2] of 90%.
Consider `CN1Cc2nccc(-c3cn(C)nc3-c3ccc(F)cc3)c2C1=O`, for which the % of inhibition in assay [3] is 3%.
On to `COc1cc(Nc2nc(C)cc(-c3cnn4nc(OC)ccc34)n2)cc(C(F)(F)F)c1`, for which, in assay [4], the % of control worked out at 100%.
With `CC(C)(O)[C@H](F)CN1Cc2cc(NC(=O)c3cnn4cccnc34)c(N3CCOCC3)cc2C1=O`, in assay [5], the dTM came out at 0.1 K.
Molecule `Nc1cnc(N2CCc3cc(S(=O)(=O)Nc4c(F)cc(Cl)cc4F)cc(N4CCCC4=O)c32)nc1` [TP-020n] registered a % of control in assay [6] of 88%.
